ChEMBL document CHEMBL5042535, “Structure-Based Design and Synthesis of N-Substituted 3-Amino-β-Carboline Derivatives as Potent αβ-Tubulin Degradation Agents” (J Med Chem, 2022)
Calls of active or inactive are those of the source. The rule behind the calls is not given here.

Columns and labels:
[1] = Drug resistance index, ratio of IC50 for human MCF7 cancer cell to ratio of IC50 for human NCI-ADR-RES cancer cell; assay type: functional
NCI/ADR-RES = experiment: Cytotoxicity in human NCI-ADR-RES assessed as inhibition in cell growth measured after 24 hrs by MTT assay; assay type: functional, cell-based
[2] = Drug resistance index, ratio of IC50 for human A549 cancer cell to ratio of IC50 for human A549T cancer cell; assay type: functional
A2780/Taxol [3] = experiment: Antitumor activity against mouse xenografted with human A2780T cell assessed as tumor growth inhibition at 20 mg/kg, ip; assay type: functional; details: read-out: TGI
A549/TR = experiment: Cytotoxicity in human A549T assessed as inhibition in cell growth measured after 24 hrs by MTT assay; assay type: functional, cell-based
A2780S [4] = experiment: Effect on microtubule network in human A2780S cells assessed as bundling of microtubule fibers near nucleus at 100 nM for 24 hrs; assay type: functional, cell-based
A2780S [5] = experiment: Antitumor activity against human A2780S cells xenografted in mouse assessed as tumor growth inhibition at 20 mg/kg, ip; assay type: functional; details: read-out: TGI
[6] = Drug resistance index, ratio of IC50 for human A2780S cancer cell to ratio of IC50 for human A2780T cancer cell; assay type: functional
A2780S [7] = experiment: Cytotoxicity in human A2780S assessed as inhibition in cell growth measured after 24 hrs by MTT assay; assay type: functional, cell-based
A2780/Taxol [8] = experiment: Antitumor activity against human A2780T cells xenografted in mouse assessed as tumor growth inhibition at 10 mg/kg, iv treated 3 times a week; assay type: functional; details: read-out: TGI
A2780/Taxol [9] = experiment: Cytotoxicity in human A2780T assessed as inhibition in cell growth measured after 24 hrs by MTT assay; assay type: functional, cell-based
A2780/Taxol [10] = experiment: Antitumor activity against human A2780T cells xenografted in mouse assessed as tumor growth inhibition at 40 mg/kg, iv treated 3 times a week; assay type: functional; details: read-out: TGI
A2780/Taxol [11] = experiment: Antitumor activity against human A2780T cells xenografted in mouse assessed as tumor growth inhibition at 20 mg/kg, iv treated 3 times a week; assay type: functional; details: read-out: TGI

SMILES: CC(=O)O[C@H]1C(=O)[C@@]2(C)[C@H]([C@H](OC(=O)c3ccccc3)[C@]3(O)C[C@H](OC(=O)[C@H](O)[C@@H](NC(=O)c4ccccc4)c4ccccc4)C(C)=C1C3(C)C)[C@]1(OC(C)=O)CO[C@@H]1C[C@@H]2O [PACLITAXEL]
- Ratio IC50 [1]: 289
- IC50 (NCI/ADR-RES): 9.34 µM
- Ratio IC50 [2]: 33.1
- inhibition in vivo at 20 mg/kg (A2780/Taxol [3]): 21.7%
- IC50 (A549/TR): 0.802 µM
- Activity (A2780S [4]): Active
- inhibition in vivo at 20 mg/kg (A2780S [5]): 66.1%
- Ratio IC50 [6]: 974.4
- IC50 (A2780S [7]): 0.0604 µM
- inhibition in vivo at 10 mg/kg (A2780/Taxol [8]): 26.9%
- IC50 (A2780/Taxol [9]): 58.9 µM
- inhibition in vivo at 40 mg/kg (A2780/Taxol [10]): 75.7%
- inhibition in vivo at 20 mg/kg (A2780/Taxol [11]): 37.2%
